The numbers were not newly measured in US20120189694A1, “CO-PRECIPITATE COMPRISING A PHOSPHODIESTERASE-5 INHIBITOR (PDE-5-INHIBITOR) AND A […] COMPATIBLE CARRIER, PRODUCTION AND USE THEREOF” (ratiopharm GmbH, priority 2009, published 2012), which cites them from elsewhere.

The conditions of data set [1]: according to WO 01/08687.
The conditions of data set [2]: in vivo.

For the molecule `CN1CC(=O)N2[C@H](c3ccc4c(c3)OCO4)c3[nH]c4ccccc4c3C[C@@H]2C1=O` [tadalafil, (6R,12aR)-6-(1,3-benzodioxol-5-yl)-2-methyl-1,2,3,4,6,7,12,12a-octahydropyrazino[2′,1′:6,1]pyrido[3,4-b]indole-1,4-dione], the solubility in water entry in data set [1] is listed as “about 2 μg/ml”. The “time the action lasts” value in data set [2] was “up to 36 hours”.
